Assay results taken from patent US8765684B2, “Solid materials of {[(2S,5R,8S,11S)-5-benzyl-11-(3-guanidino-propyl)-8-isopropyl-7-methyl-3,6,9,12,15-pentaoxo-1,4,7,10,13-pentaaza-cyclopentadec-2-yl]-acetic acid} and methods for obtaining them” (Merck Patent GmbH, priority 2009, dated 2014).

Tests used:
[1] = format: physicochemical; settings: 25° C., listed as S2
Text: Preferably, the anhydrates or ansolvates according to the invention and especially the crystalline form A1 can be characterised, alternatively or additionally, by dynamic vapour sorption experiments. The results can be obtained by standard techniques as described in Rolf Hilfiker, ‘Polymorphism in the Pharmaceutical Industry’, Wiley-VCH. Weinheim 2006 (Chapter 9: Water Vapour Sorption, and references therein). […] Eur. criteria.
Preferably, the tetrasolvates according to the invention, more preferably the tetrahydrates according to the invention and especially the crystalline form S3 can be characterised, alternatively or additionally, by dynamic vapour sorption experiments. The results can be obtained by standard techniques as described in Rolf Hilfiker, ‘Polymorphism in the Pharmaceutical Industry’, Wiley-VCH. Weinheim 2006 (Chapter 9: Water Vapour Sorption, and references therein).
Dynamic Vapor Sorption measurements are preferably obtained on a SMS DVS Intrinsic system. The results are preferably obtained by standard techniques as described by Rolf Hilfiker “Polymorphism in the Pharmaceutical Industry” Wiley-VCH Weinheim 2006 (Chapter 9: Water Vapour Sorption, and references therein.) Approx. 2-10 mg of samples are preferably weighed into an Aluminium 100 μL pan and placed in the sample incubator of the DVS instrument with microbalance. A nitrogen overall flow rate of 200 mL/min (combined dry and humid stream) is preferably used for humidification. Water vapor sorption isotherms are preferably acquired at 25° C. in the range 0% relative humidity to 98% relative humidity mostly with 10% relative humidity steps. For all relative humidity steps, an equilibrium condition of dm/dt≦0.0005 wt %/min are preferably used, with a minimum relative humidity step time of 10 minutes and a maximum relative humidity step time of 360 minutes which is preferably used as a timeout if the dm/dt criterai mentioned above is not been reached.
A SMS DVS I system is used for the dynamic vapour experiments regarding crystalline form S3. The results have been obtained by standard techniques as described in Rolf Hilfiker, ‘Polymorphism in the Pharmaceutical Industry’, Wiley-VCH. Weinheim 2006 (Chapter 9: Water Vapour Sorption, and references therein). […] During the water adsorption cycle there is shown an assembly of water molecules (ca. 10 wt%) in the lattice at elevated rh. In the second desorption cycle there is a loss of this amount of water.
(§1) A SMS DVS Intrinsic is used for the dynamic vapour experiments. The results are obtained by standard techniques as described in Rolf Hilfiker, ‘Polymorphism in the Pharmaceutical Industry’, Wiley-VCH. Weinheim 2006 (Chapter 9: Water Vapour Sorption, and references therein). […] Upon water vapour adsorption, an assembly of water molecules in the lattice is observed, with a maximum weight gain of approx. 8 wt % at elevated rh. In the second desorption cycle a total mass loss of approx. 9.9 wt % is observed. For a Cilengitide Dihydrate Di-Methanolate, the calculated Methanol content equals 9.3 wt %.
as §1, with “6.4” for “8”, “9.2” for “9.9”, “Di-Ethanolate,” for “Di-Methanolate,”, “Ethanol” for “Methanol”, “12.5” for “9.3”

[2] = Competitive slurry conversion of pseudopolymorphic form and form A1 (1:1) in Water/Methanol and Water/Ethanol mixtures; format: physicochemical; settings: 1:1 pseudopolymorphic form + A1
Protocol: b) Additionally, crystalline tetrasolvates according invention and especially crystalline forms S1 and S2 can be manufactured by competitive slurry conversion experiments with a mixture of a pseudopolymorphic form (for example S1, S2, S3 or mixtures of these) with form A1 (1:1) in Water/Methanol and Water/Ethanol mixtures with different alcohol contents at different temperatures, respectively.
(§2) Approx. 20 mg of a pseudopolymorphic form (for example S1, S2, S3 or mixtures of these) and 20 mg of form A1 of Cilengitide are dispersed in 300 μl Water/alcohol mixture at 0° C. or room temperature (25° C.). The dispersion is stirred for 24 h and additionally for 3 weeks at RT (25° C.) (long-term experiment) by a magnetic stirrer and finally filtered
Approx. 20 mg of a pseudopolymorphic form (for example S1, S2, S3 or mixtures of these) and 20 mg of form A1 of Cilengitide are dispersed in 300 μl Water/alcohol mixture at 50° C. The dispersion is stirred for 24 h by a magnetic stirrer and finally filtered.
Additionally form A1 can be manufactured by competitive slurry conversion experiments with a mixture of a pseudopolymorphic form (for example S1, S2, S3 or mixtures of these) and form A1 (1:1) in Water/Methanol and Water/Ethanol mixtures with different alcohol contents at different temperatures. In the following table the conditions for the experiments leading to the pure form A1 are listed.
as §2, with “C.,” for “C. or”, “and 50° C.” for “(25° C.).”, “filtered.” for “filtered”

Maximum weight gain upon water vapour adsorption ([1]; elevated rh): approx. 6.4 wt %
Mass loss in the first desorption cycle ([1]; water vapour sorption): approx. 6.5 wt %
Total mass loss in the second desorption cycle ([1]; water vapour sorption): approx. 9.2 wt %
Ethanol in the mixture with Water leading to form S2 ([2]; 0° C. for 1 day): 20-80 v %
Ethanol in the mixture with Water leading to form S2 ([2]; RT for 3 weeks): 40-70 v %
Ethanol in the mixture with Water leading to form S2 ([2]; RT for 1 day): 40-80 v %
Substance: cyclo-(Arg-Gly-Asp-DPhe-NMe-Val) [crystalline form S2]
